Experimental data taken from US20120122727A1, “IN VITRO METHOD FOR PREDICTING WHETHER A COMPOUND IS GENOTOXIC IN VIVO” (priority 2009, published 2012).

System: primary mouse hepatocytes
Assay: Gene expression (Affymetrix Mouse Genome 430 2.0) in primary mouse hepatocytes, true vs false GTX, 24 h and 48 h
Settings: 48 h; log2, corrected for vehicle control

Structure (SMILES): CN(C)N=O [DMN, Dimethylnitrosamine]
- Gene expression AF297615 average: 3.153
- Gene expression AF335325 average: 1.6857
- Gene expression AI594683 average: 3.7761
- Gene expression AI747296 average: −0.4333
- Gene expression AK005731 average: 4.617
- Gene expression AK007854 average: 0.8396
- Gene expression AK010447 average: −0.8634
- Gene expression AK010738 average: 1.343
- Gene expression AK014608 average: 1.391
- Gene expression AK017734 average: 1.0611
- Gene expression AK018383 average: 0.8246
- Gene expression AK019979 average: −1.11
- Gene expression AV095209 average: −0.454
- Gene expression AV141095 average: −0.8663
- Gene expression AV173869 average: −1.272
- Gene expression AV216768 average: −0.2641
- Gene expression AV219418 average: 4.5473
- Gene expression AV221299 average: −1.5693
- Gene expression AV246296 average: 0.9572
- Gene expression AV251625 average: 1.246
- Gene expression AV254764 average: 1.133
- Gene expression AV327248 average: 4.023
- Gene expression BB009155 average: 2.343
- Gene expression BB027848 average: 1.191
- Gene expression BB043558 average: 2.187
- Gene expression BB046347 average: 0.7743
- Gene expression BB140436 average: −1.281
- Gene expression BB204486 average: −0.3108
- Gene expression BB223872 average: 1.694
- Gene expression BB246912 average: −0.9806
- Gene expression BB275142 average: 1.162
- Gene expression BB458460 average: −0.6934
- Gene expression BB463610 average: 1.546
- Gene expression BB730977 average: −0.656
- Gene expression BB743970 average: 3.154
- Gene expression BB770528 average: 1.709
- Gene expression BB781615 average: 1.487
- Gene expression BC003284 average: 1.379
- Gene expression BC004827 average: −1.0689
- Gene expression BC005552 average: −0.5235
- Gene expression BC006713 average: 1.668
- Gene expression BC010318 average: −1.167
- Gene expression BC012247 average: 1.67
- Gene expression BC012955 average: −1.97
- Gene expression BC013893 average: 0.5487
- Gene expression BC017615 average: −2.7334
- Gene expression BC019379 average: −0.3602
- Gene expression BC019882 average: 1.494
- Gene expression BC021352 average: 3.512
- Gene expression BC022148 average: 1.8449
- Gene expression BC025169 average: −1.296
- Gene expression BC026131 average: −0.7571
- Gene expression BC027026 average: 2.571
- Gene expression BC027121 average: 2.075
- Gene expression BC027185 average: 1.462
- Gene expression BE956581 average: 3.033
- Gene expression BF719766 average: 1.2016
- Gene expression BG065754 average: 0.9953
- Gene expression BG066491 average: −0.9757
- Gene expression BG076151 average: 1.205
- Gene expression BG076333 average: −0.7995
- Gene expression BG797099 average: 1.704
- Gene expression BG967046 average: 1.1973
- Gene expression BI651416 average: 1.8588
- Gene expression BI966443 average: 3.295
- Gene expression BM198879 average: 1.096
- Gene expression BM200015 average: 1.16
- Gene expression BM230508 average: 1.54
- Gene expression BM936480 average: 0.7781
- Gene expression BQ174991 average: −0.28
- Gene expression L21027 average: −0.4472
- Gene expression NM_007556 average: −1.29
- Gene expression NM_007980 average: 0.3252
- Gene expression NM_007987 average: 1.665
- Gene expression NM_008522 average: 4.993
- Gene expression NM_008935 average: −1.382
- Gene expression NM_009897 average: 3.619
- Gene expression NM_011075 average: 2.401
- Gene expression NM_011176 average: 1.597
- Gene expression NM_011316 average: 2.0898
- Gene expression NM_012006 average: 1.6671
- Gene expression NM_013642 average: 0.3461
- Gene expression NM_013738 average: 1.562
- Gene expression NM_013929 average: 1.891
- Gene expression NM_018881 average: 0.9481
- Gene expression NM_019738 average: −2.9169
- Gene expression NM_030697 average: 2.5583
- Gene expression NM_053122 average: −2.3248
- Gene expression NM_134147 average: −1.579
- Gene expression NM_134188 average: −0.6378
- Gene expression X62701 average: 0.07157
